We go through one molecule from paper PMC7733455, “A novel multistage antiplasmodial inhibitor targeting Plasmodium falciparum histone deacetylase 1” (Cell Discovery, 2020).

Values joined by “and” are separate entries in the source; they are usually repeats but may differ in a detail not shown here. Equal entries are not always repeated.

The test system of one data set is P. falciparum Dd2. The experiment in a line: 3-day SYBR Green I GIA, multidrug-resistant strain Dd2. The note with it: Plasmodium falciparum, 72 h; 3-day SYBR Green I GIA, multidrug-resistant strain Dd2; read-out: Antiplasmodial activity EC50, Dd2. Format: cell-based, Plasmodium falciparum. In outline:
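Sorbitol-synchronized ring-stage parasites at 1% parasitemia and 2% hematocrit, cultured 72 h with compounds at 1% DMSO final. Growth read by SYBR Green I staining. EC50 from curve fitting.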

The nature of data set [1]: In vitro cytotoxicity analysis (CellTiter-Glo), 293T. The settings on record: human, 293T cells, Cytotoxicity EC50, 293T, 72 h, CellTiter-Glo. As for the experimental part:
(§1) In all, 1% DMSO was used as a negative control. The inhibition of each drug was normalized to that of the DMSO control. EC50 was calculated by GraphPad Prism. Three independent assays with two technical replicates each time were conducted in this experiment.
A general note: Cellular ATP, detected with luciferase, serves as a proxy for viable cell number.

The next data set has as its system 293T cells. Described as above. On the procedure:
as §1

The next data set has as its system P. falciparum CP286. The experiment in a line: 3-day SYBR Green I GIA, strain CP286. The data set is classed as cell-based. The settings on record: Plasmodium falciparum; CP286 resistant to pyrimethamine and chloroquine; read-out: Resistant isolates EC50, CP286. On the procedure:
(§2) A 3-day SYBR Green I inhibition EC50 assay was performed as described previously. Briefly, highly synchronized ring-stage parasites by 5% sorbitol (1% parasitemia and 2% hematocrit) were incubated in a 96-well plate with compounds in a total volume of 200 μL. […] The parasites were cultured for 72 h before SYBR Green I staining as described above. The EC50 was calculated by GraphPad Prism. DHA was used as a positive control, and the final concentration of DMSO was 1%.

For data set [2], the system named is P. falciparum isolate 6218. In words: 3-day SYBR Green I GIA, field isolate 6218. Format: cell-based. The settings on record: Plasmodium falciparum; artemisinin- and piperaquine-resistant isolate; read-out: Resistant isolates EC50, 6218. As for the experimental part: as §2
Data set [3] in a line: Liver microsome metabolism assay, mouse. The data set is classed as in vitro ADME. The note with it: for half-life at 1 µM: mouse, liver microsomes. On the procedure:
(§3) Liver microsomes (0.5 mg/mL) were purchased from Corning. Ketanserin was selected as a positive control. The tested compounds were first dissolved in DMSO to a concentration of 10 mM and then diluted to 0.5 mM with acetonitrile. Liver microsome buffer was used to dilute the compounds to a working concentration of 1.5 µM, 30 µL of which was mixed with 15 µL of 6 mM NADPH at 37 °C. At 0, 5, 15, 30, and 45 min after incubation, 135 µL of acetonitrile was added to quench the reaction. The mixture was shaken on a vortex mixer (IKA, MTS 2/4) for 10 min at 600 rpm/min and then centrifuged at 5594× g for 15 min (Thermo Multifuge×3R). The supernatant was diluted 1:1 into distilled water, and analyzed by LC-MS/MS.
On the technique in general: Microsomes from liver hold many membrane-bound enzymes, among them those of drug oxidation.

Data set [4] is described as follows: Liver microsome metabolism assay, rat. The data set is classed as in vitro ADME. The settings on record: rat liver microsomes. As for the experimental part:
as §3

For data set [5], the system named is P. falciparum NF54 stage IV gametocytes. The experiment in a line: In vitro gametocyte inhibition assay, stage IV. The note with it: NF54 luciferase line, 48 h exposure. The data set is classed as cell-based, Plasmodium falciparum. On the procedure: To test the activities of JX21108 against different gametocyte stages, the P. falciparum producer NF54^p230p-luc was utilized, as described previously. […] Luciferase intensity based on luciferase expression was detected as described above. The EC50 was calculated by GraphPad Prism. DMSO (1%) was used as a negative control.

A further data set relates to 3D7^HDAC1-glmS. The experiment in a line: Sensitivity of transgenic parasites to JX21108, 3D7^HDAC1-glmS. Format: cell-based, Plasmodium falciparum. As for the experimental part: Highly synchronized schizont-stage parasites were prepared and treated as described above, with adjustments. […] After washing, parasites were cultured in new CM for another 68 h. Parasite growth was monitored by SYBR Green I staining, as described above. The EC50 was calculated by GraphPad Prism.

The next data set has as its target T1, hHDAC1 (Homo sapiens, UniProt Q13547).
T1 construct: purchased BPS Bioscience 50058
In words: Human HDAC inhibition assay, hHDAC1. Format: biochemical. The settings on record: performed only once; read-out: Inhibitory Activity IC50, hHDAC1. On the procedure: (§4) SAHA and suramin were used as positive controls. The tested compounds were dissolved into 20 mM stock in 100% DMSO. […] Ten microliters of trypsin and Ac-peptide substrate/Tris buffer solution were added to start the reaction, followed by a 1-h incubation at room temperature for HDACs 1–3 and 6. Ten microliters of Ac-peptide substrate/Tris buffer solution was added to start the reaction, followed by a 4-h incubation at room temperature and a further 2-h incubation with trypsin solution for HDAC8 and Sirt 2. […] This experiment was performed only once.

In the next data set the target is T2, hHDAC2 (Homo sapiens, UniProt Q92769).
T2 construct: purchased BPS Bioscience 5002
T2 sequence (Q92769 whole entry): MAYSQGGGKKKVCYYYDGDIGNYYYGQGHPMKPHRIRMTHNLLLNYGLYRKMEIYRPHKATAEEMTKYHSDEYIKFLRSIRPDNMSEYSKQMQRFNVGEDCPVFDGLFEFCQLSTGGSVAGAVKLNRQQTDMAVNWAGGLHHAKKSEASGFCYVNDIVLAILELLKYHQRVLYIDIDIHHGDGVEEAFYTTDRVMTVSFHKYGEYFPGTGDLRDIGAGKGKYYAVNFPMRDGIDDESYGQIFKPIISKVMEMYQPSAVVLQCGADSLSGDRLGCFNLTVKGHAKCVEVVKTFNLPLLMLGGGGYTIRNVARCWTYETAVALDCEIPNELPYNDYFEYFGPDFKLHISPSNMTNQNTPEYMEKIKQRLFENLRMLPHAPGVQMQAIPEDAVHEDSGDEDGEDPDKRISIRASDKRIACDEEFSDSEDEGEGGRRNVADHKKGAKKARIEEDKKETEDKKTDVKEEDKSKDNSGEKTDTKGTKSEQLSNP
In words: Human HDAC inhibition assay, hHDAC2. The settings on record: performed only once; read-out: Inhibitory Activity IC50, hHDAC2. The data set is classed as biochemical. As for the experimental part: as §4

A further data set deals with T3, hHDAC3 (Homo sapiens, UniProt O15379).
T3 construct: purchased BPS Bioscience 50003
T3 sequence (O15379 whole entry): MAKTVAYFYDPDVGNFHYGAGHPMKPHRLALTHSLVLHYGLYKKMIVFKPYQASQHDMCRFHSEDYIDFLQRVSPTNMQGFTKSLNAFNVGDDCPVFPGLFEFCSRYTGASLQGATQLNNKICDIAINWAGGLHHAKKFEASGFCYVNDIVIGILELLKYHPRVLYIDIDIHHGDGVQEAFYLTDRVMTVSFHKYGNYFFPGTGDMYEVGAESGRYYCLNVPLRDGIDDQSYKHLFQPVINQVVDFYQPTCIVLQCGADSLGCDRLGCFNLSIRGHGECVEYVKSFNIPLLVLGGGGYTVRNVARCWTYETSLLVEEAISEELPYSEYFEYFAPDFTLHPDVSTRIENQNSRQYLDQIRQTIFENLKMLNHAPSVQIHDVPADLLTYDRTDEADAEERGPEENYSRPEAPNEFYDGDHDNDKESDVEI
T3 sequence (Q9Y618 395-489 partner limits assumed): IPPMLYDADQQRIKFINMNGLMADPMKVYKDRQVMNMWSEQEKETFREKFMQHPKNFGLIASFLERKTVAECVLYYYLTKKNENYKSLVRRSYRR
The experiment in a line: Human HDAC inhibition assay, hHDAC3. The data set is classed as biochemical. The settings on record: performed only once; read-out: Inhibitory Activity IC50, hHDAC3. As for the experimental part:
as §4

The target of the next data set is T4, hHDAC8 (Homo sapiens, UniProt Q9BY41).
T4 construct: purchased BPS Bioscience 50008
T4 sequence (Q9BY41 whole entry): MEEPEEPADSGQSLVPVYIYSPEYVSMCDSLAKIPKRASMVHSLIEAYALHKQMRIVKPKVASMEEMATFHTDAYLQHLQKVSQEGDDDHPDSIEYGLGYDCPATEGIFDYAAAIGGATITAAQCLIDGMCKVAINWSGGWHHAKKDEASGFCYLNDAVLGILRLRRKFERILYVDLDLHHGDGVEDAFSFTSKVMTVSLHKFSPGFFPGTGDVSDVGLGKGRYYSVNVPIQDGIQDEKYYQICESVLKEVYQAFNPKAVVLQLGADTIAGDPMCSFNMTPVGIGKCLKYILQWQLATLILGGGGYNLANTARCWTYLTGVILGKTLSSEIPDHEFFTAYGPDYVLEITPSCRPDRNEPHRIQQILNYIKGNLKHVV
The experiment in a line: Human HDAC inhibition assay, hHDAC8. The data set is classed as biochemical. The note with it: performed only once; read-out: Inhibitory Activity IC50, hHDAC8. On the procedure: as §4

In a further data set the target is T5, hHDAC6 (Homo sapiens, UniProt Q9UBN7).
T5 construct: purchased BPS Bioscience 50046
T5 sequence (Q9UBN7 whole entry): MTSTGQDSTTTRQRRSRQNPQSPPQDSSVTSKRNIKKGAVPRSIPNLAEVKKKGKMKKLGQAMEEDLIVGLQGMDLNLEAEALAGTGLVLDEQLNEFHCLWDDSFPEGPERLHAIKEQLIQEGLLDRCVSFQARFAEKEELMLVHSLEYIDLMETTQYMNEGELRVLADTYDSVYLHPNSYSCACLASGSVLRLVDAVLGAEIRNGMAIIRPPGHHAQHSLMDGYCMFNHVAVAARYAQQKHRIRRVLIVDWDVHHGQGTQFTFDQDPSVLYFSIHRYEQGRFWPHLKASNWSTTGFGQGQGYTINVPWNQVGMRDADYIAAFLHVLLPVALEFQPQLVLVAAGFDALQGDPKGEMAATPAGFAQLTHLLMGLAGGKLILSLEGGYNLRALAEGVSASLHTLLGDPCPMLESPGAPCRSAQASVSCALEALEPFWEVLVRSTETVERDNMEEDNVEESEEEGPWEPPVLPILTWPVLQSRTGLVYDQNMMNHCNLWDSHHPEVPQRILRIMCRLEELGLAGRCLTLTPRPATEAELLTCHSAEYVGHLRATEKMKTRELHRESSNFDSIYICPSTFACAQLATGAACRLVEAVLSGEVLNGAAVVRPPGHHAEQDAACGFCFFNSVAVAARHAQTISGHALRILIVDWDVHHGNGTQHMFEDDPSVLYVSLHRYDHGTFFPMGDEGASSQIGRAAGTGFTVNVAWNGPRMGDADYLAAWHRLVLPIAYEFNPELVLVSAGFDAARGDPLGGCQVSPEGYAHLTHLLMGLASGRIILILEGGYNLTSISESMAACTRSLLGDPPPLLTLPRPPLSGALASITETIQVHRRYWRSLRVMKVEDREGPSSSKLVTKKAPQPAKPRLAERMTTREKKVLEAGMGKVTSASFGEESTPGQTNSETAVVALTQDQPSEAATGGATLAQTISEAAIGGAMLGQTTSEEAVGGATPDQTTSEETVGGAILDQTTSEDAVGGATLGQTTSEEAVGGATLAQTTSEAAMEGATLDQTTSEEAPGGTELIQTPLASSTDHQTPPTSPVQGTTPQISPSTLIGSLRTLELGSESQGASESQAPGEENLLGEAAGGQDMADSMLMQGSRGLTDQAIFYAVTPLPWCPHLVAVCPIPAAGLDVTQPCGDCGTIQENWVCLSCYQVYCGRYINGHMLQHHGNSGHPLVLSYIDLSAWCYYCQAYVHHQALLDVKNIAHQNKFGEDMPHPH
The experiment in a line: Human HDAC inhibition assay, hHDAC6. Format: biochemical. The settings on record: performed only once; read-out: Inhibitory Activity IC50, hHDAC6. On the procedure:
as §4

A further data set deals with human HDACs. The experiment in a line: Human HDAC inhibition assay, summary. Format: biochemical. On the procedure:
as §4

For another data set, the system named is P. falciparum 3D7. In words: Stage-specific parasite inhibition assay. Format: cell-based, Plasmodium falciparum. The note with it: 40 nM. On the procedure: To analyze the stage-specific parasite inhibition, highly synchronized parasites were cultured in 24-well plates with a starting parasitemia of 1% at a hematocrit of 2%. After 12 h of culture with the tested compounds at a concentration of 40 nM, parasites were washed three times to remove the compounds, and parasitemia was diluted 1:40 by new RBCs into CM for another 4 days of culture. DMSO was used as a blank control. Parasitemia was counted by flow cytometry. Flow cytometry was conducted as described previously. Briefly, the parasite-infected RBCs were fixed in 4% formaldehyde/0.015% glutaraldehyde for 30 min at room temperature and incubated with 500 μL of a SYBR green staining solution (Invitrogen) (1:5000) in 1× PBS (phosphate-buffered saline, pH 7.4, without calcium and magnesium). Cells were washed three times with 1× PBS prior to flow-cytometry analysis on a MoFloAstrios EQ instrument (BECKMAN COULTER). RBCs (5 × 10^5) were measured (excitation 488 nm; emission detection FL1 513 ± 26 nm), and a value of 5 on FL1 (SYBR Green intensity) was applied as a threshold to identify (gate) the infected RBCs (iRBCs). Acquired data were processed using the FlowJo software (v.10.0.5).

The mark [6] stands for this setting: read-out: T1/2 in liver microsomes.

T1 sequence (Q13547 whole entry): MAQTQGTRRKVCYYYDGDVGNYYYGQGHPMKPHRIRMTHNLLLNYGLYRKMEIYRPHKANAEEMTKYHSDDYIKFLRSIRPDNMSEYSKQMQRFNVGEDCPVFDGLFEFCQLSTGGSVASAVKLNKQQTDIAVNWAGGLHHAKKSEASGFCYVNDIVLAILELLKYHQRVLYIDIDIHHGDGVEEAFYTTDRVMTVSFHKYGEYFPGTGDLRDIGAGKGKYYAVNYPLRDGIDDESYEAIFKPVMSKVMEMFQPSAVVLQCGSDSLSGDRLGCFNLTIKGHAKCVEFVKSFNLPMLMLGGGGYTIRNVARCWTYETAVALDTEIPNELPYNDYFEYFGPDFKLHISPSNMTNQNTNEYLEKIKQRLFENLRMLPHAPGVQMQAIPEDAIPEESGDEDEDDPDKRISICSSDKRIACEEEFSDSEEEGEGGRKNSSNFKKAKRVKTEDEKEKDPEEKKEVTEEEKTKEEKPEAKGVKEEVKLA

For the molecule `Cl.Cn1cc(CN2CCC3(CCN(c4ncc(C(=O)NO)cn4)C3)C2)c2cc(C#N)ccc21` (stereo not shown) [JX21108], the EC50 – broadly, the midpoint of the concentration-response curve – in the data set with P. falciparum Dd2 was 4 nM; in the data set with P. falciparum CP286, 7 ± 0.6 nM; in [2], 2.2 ± 0.2 nM; in [5] it was 5.9 ± 1.97 nM; in data set [5] (Plasmodium falciparum, NF54, 48 h), 5.85 ± 1.97 nM; in the data set with 3D7^HDAC1-glmS (Plasmodium falciparum, 3D7, 4 h, read-out: EC50 for 3D7^HDAC1-glmS), 20.5 ± 6.95 nM. This molecule also had an EC50 at 72 h in [1] of 1190 ± 233 nM. For the same molecule, the “Selectivity index for 293T (EC50 293T/EC50 3D7)” value in the data set with 293T cells is ~ 331 and 334 and 331. The CLint scaled at 1 µM in [3] (mouse liver microsomes, read-out: CL in liver microsomes) worked out at 7.32 mL/min/kg; in [4] (read-out: CL in liver microsomes) it was 196 mL/min/kg. Also, the figures for the half-life at 1 µM in [3] (setting [6]), in [3] (read-out: half-life in mouse liver microsomes (converted)) and in data set [4] (setting [6]) were 12.4 h, 12.4 h and 0.211 h, respectively. The “shift in sensitivity on PfHDAC1 KD” value with 3D7^HDAC1-glmS (3D7^HDAC1-glmS vs 3D7^HDAC1-TY1) is listed as 5.5 fold. For the same molecule, the 50% inhibitory concentration (IC50) (commonly the concentration needed to halve the response being measured) turned out to be 1.8 nM at hHDAC1; 4.6 nM at hHDAC2; 19 nM on hHDAC3; 62 nM at hHDAC8; 66 nM on hHDAC6. In addition, the “lower inhibitory activity on human HDACs than quisinostat” value with human HDACs is listed as “approximately 4 fold”. In addition, in the data set on P. falciparum 3D7 (12-h treatment), the “stage dependence of parasite killing (parasitemia at 4 dpi)” value is “treatment at the schizont stage was more active in parasite killing than that at the ring and trophozoite stages”. Also, the “asexual development of parasites to the next cycle” value in the data set on P. falciparum 3D7 (12-h treatment at ring, trophozoite and schizont stages) is given as “strongly block the asexual development of parasites to the next cycle”.
